The target in experiment [1] is T1, full-length WT STING (Homo sapiens, UniProt Q86WV6, H232R).
T1 construct: AviTag (after gg linker) (C); HRV3C cleavage site (after gs linker) (C); HIS8 (C); made in house; host or cells: Trichoplusia ni (Hi-Five) insect cells infected with baculovirus (virus generated and amplified in Sf21 cells); used as a washed membrane preparation
Put plainly: 3H-cGAMP filtration binding assay (WT STING). The note with it: competition with tritiated cGAMP, WT STING membrane. Put shortly: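 Competitive filtration binding of [3H]cGAMP (16 nM working stock) to T. ni membranes overexpressing full-length WT human STING, 60 min at RT in PBS. Bound radioactivity counted after GF/B filtration; 10-point 1:3 titration, EC50 from 4-parameter fit after control normalisation.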

For experiment [2], the target named is T2, full-length HAQ STING (Homo sapiens, UniProt Q86WV6, G230A/H232R/R293Q/R71H).
T2 construct: AviTag (after GG linker) (C); HRV3C cleavage site (after GS linker) (C); HIS8 (C); made in house; host or cells: Trichoplusia ni (Hi-Five) insect cells infected with baculovirus (virus generated and amplified in Sf21 cells); used as a washed membrane preparation
T2 sequence (Q86WV6 with tags, fused parts or gaps R71H/G230A/H232R/R293Q): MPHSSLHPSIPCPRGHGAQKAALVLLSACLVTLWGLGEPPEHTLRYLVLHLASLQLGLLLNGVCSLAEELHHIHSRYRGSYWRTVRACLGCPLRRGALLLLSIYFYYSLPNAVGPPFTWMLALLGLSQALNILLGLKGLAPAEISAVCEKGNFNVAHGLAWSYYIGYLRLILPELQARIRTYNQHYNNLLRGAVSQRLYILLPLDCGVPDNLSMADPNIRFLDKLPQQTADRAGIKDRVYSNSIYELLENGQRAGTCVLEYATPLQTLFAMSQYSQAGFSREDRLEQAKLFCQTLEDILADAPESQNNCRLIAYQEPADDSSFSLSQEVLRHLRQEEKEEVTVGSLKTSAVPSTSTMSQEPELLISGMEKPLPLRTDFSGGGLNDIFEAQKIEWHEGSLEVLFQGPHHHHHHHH
Put plainly: 3H-cGAMP filtration binding assay (HAQ STING). The note with it: competition with tritiated cGAMP, HAQ STING membrane. The method, boiled down:
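Hi-Five (T. ni) membranes overexpressing the STING variant (2.2 ug/ml working) preincubated with compound 60 min at RT in PBS, then [3H]cGAMP (8 nM working stock) added for 60 min at RT. Bound radioactivity captured on GF/B filters and counted by scintillation; EC50 from 4-parameter fit of control-normalized activity.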

For experiment [3], the system named is secretion of interferon-beta from THP1 cells. Briefly: IFN-β secretion in THP1 cell culture (5 h). Type of experiment: cell-based. The settings on record: Homo sapiens, THP-1, 5 h, compound at 3 uM, 30 uM cGAMP = 100%, read-out: % Effect relative to 2′3′-cGAMP (@ 3 uM). The method, boiled down: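 Thawed THP1 cells (0.8×10^6/mL, RPMI with 0.5% FBS) exposed to compounds 1.5–30000 nM (0.3% DMSO) for 5 h at 37 °C. Supernatant IFN-β quantified by AlphaLISA. Percent effect normalised to 30 uM cGAMP and DMSO controls; EC50 from 4-parameter fit.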

The values that follow come from US10793557B2, “Sting agonist compounds” (Merck Sharp & Dohme Corp., priority 2018, dated 2020).

A word on the EC50: it is the concentration giving half of the maximal effect. The low end stands for greater potency, the high end for weaker potency.

T1 sequence (Q86WV6 with tags, fused parts or gaps H232R): as the sequence (Q86WV6 with tags, fused parts or gaps R71H/G230A/H232R/R293Q) above, with H71R, A230G, Q293R counted along it

As to `COc1cc2sc(C(=O)C[C@H](C)C(=O)O)cc2c(Cl)c1OCCCOc1c(O)cc2sc(C(=O)C[C@H](C)C(=O)O)cc2c1Cl` [Example 187, (S)-4-(5-(3-((2-((S)-3-carboxybutanoyl)-4-chloro-6-hydroxybenzo[b]thiophen-5-yl)oxy)propoxy)-4-chloro-6-methoxybenzo[b]thiophen-2-yl)-2-methyl-4-oxobutanoic acid], the half-maximal effective concentration (EC50) in experiment [1] was determined as 46 nM; in experiment [2], 4 nM. Besides, in experiment [3], the activation at 3 µM came out at 128%.

For the compound `COc1cc2sc(C(=O)C[C@H](C)C(=O)O)cc2c(F)c1OCCCOc1c(O)cc2sc(C(=O)C[C@H](C)C(=O)O)cc2c1F` [Example 188, (S)-4-(5-(3-((2-((S)-3-carboxybutanoyl)-4-fluoro-6-hydroxybenzo[b]thiophen-5-yl)oxy)propoxy)-4-fluoro-6-methoxybenzo[b]thiophen-2-yl)-2-methyl-4-oxobutanoic acid], the concentration for a half-maximal effect (EC50) in experiment [1] and in experiment [2] was 1 nM each time. Further, in experiment [3], the activation at 3 µM is 104%.

Turning to `COc1cc2sc(C(=O)C[C@H](C)C(=O)O)cc2cc1OCCCOc1c(O)cc2sc(C(=O)C[C@H](C)C(=O)O)cc2c1F` [Example 189, (S)-4-(5-(3-((2-((S)-3-carboxybutanoyl)-4-fluoro-6-hydroxybenzo[b]thiophen-5-yl)oxy)propoxy)-6-methoxybenzo[b]thiophen-2-yl)-2-methyl-4-oxobutanoic acid], the concentration giving a half-maximal response (EC50) in experiment [1] was 2 nM; in experiment [2] it was 1 nM. Moreover, the activation at 3 µM in experiment [3] was 111%.

Regarding `COc1cc2sc(C(=O)C[C@H](C)C(=O)O)cc2c(Cl)c1OCCCOc1c(O)cc2sc(C(=O)C[C@H](C)C(=O)O)cc2c1F` [Example 190, (S)-4-(5-(3-((2-((S)-3-carboxybutanoyl)-4-chloro-6-methoxybenzo[b]thiophen-5-yl)oxy)propoxy)-4-fluoro-6-hydroxybenzo[b]thiophen-2-yl)-2-methyl-4-oxobutanoic acid], the EC50 amounted to 2 nM in experiment [1] and 1 nM in experiment [2]. Moreover, in experiment [3], the activation at 3 µM came to 126%.
